Measurements taken from patent US20220062258A1, “Heterocyclic derivatives” (Merck Patent GmbH, priority 2019, published 2022).

Tests used:
[1] = biological target: T1, MetAP-2 (Homo sapiens, UniProt P50579); test: Degradation of MetAP-2 in HCT116 cells (Western blot, MetAp2/GAPDH signal); type: cell-based; parameters: endogenous in cells; host or cells: HCT116; details: for Signal MetAp2/GAPDH normalized to untreated (DMSO): 24 hrs, HTC116 cells, <1 means degradation; for reduction of MetAP-2 protein: after 24 h
T1 sequence (P50579 whole entry): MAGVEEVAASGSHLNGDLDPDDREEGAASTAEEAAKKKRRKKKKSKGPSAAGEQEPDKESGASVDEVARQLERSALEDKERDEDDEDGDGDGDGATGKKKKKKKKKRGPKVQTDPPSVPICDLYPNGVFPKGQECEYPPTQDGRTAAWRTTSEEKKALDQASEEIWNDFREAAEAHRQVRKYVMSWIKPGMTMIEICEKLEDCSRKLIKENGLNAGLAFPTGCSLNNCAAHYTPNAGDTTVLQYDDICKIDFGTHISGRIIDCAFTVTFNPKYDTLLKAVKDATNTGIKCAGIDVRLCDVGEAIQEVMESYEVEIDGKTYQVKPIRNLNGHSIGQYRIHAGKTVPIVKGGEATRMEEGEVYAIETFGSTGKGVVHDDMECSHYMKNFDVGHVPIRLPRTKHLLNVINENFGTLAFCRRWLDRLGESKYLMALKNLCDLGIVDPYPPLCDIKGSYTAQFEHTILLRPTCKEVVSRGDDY
Method: See scans below. […] The initial MetAP-2 degradation results were obtained after 24 h incubation of the compounds in three different concentrations (0.1; 1; 10 μM), cell lysis, SDS-PAGE separation, blotting and antibody aided detection.
Comparison of MetAP2 protein levels in HTC116 cells after compound treatments at different concentrations and time points. As control, DMSO was used and its values set as “1”. MetAp2 values <1 means degradation.
2. Exemplary Testing of the Compound
HCT116 cells were sown in 6-well plates. Pipette 1 mL fresh medium to every well and incubate for at least 1 h (37° C., 5% CO2, 95% rH).
Harvest and count cells in Vi-Cell. Equinr. 70198475 Adjust cell concentration to 0.35e^6 cells/mL and add 1 mL of cell suspension (total 0,35e^6 cells/well).
Incubate cells for 24 hours (37° C., 5% CO2, 95% rH)
HCT116: 24 h: ˜50% confluent before treatment
Compounds will be thawed the first time, stock: 10 mM; final concentration: 10 μM & 1 μM & 0.1 μM
Treatment with DMSO based solution with Digital Dispenser: HCT116 platte 2A1.jpg_meta.xml • create new dispensing protocol for compound • apply name of test compound and its stock concentration (in mM) for testing • 3×1:10 dilution series • final 0.3% DMSO, DMSO normalization for every well • shaking after compound/DMSO addition
Incubate cells for further 24 hours (37° C., 5% C02, 95% rH)
HCT116: 70-80% confluent before lysis • after incubation cells were lysed with RIPA lysis buffer including Halt™
all steps performed on ice or at 4° C. • aspirate supernatant from cells • wash cells twice with 2.0 mL ice cold PBS buffer • aspirate supernatant from cells after each washing step • lyse cells with 100 μL Ripa lysis buffer per well • scrape cells with cell scraper and transfer lysates to Eppendorf Cups • incubate for 15 min on ice • centrifuge […] at 13000×g and 4° C. • transfer supernatants to fresh Eppendorf cups • removal of 20 μL lysate for BCA assay • aliquot and freeze at −20° C.
Determination of protein concentration of lysates with BCA Protein Assay Kit. BSA supplied with the kit is 2 mg/mL.
Dilute the standard (Stock BSA concentration=2 mg/mL) in a 96 well plate: Samples were run 1:4. Dilute in lysing buffer, lysing buffer alone was run to determine the background from detergents in the assay.
BCA reagent: Dilute Reagent A and Reagent B in a 1:50 ratio. To 9.8 mL A add 200 μL B.
Assay Procedure: Pipette 5 μL/well of standard or samples to 96 wells (see plate layout). Samples were run in duplicate. Blanks=5 μL/well PBS or 5 μL/well lysing buffer. Add 100 μL/well of the prepared BCA reagent. Tap plate to mix or shake for 1-2 min on the Eppendorf mixer. Incubate at 37° C. for 30 min.
Read the OD at 562 nm. Plate was read on EnVision 2104 Multilabel Reader (Perkin Elmer, Equipment Number 70160330) last verification of instrument 17.08.2017 (once a year) (A25/531). AEH181012_BCA.csv
In EXCEL the duplicates were averaged and the average background PBS was subtracted for the standard curve.
A trend line was created, the intercept (b) was set at 0. The R^2 should be >0.950 for acceptable results. The lysate buffer blank was subtracted from the test values and the averaged, background-corrected O.D. values were used with the equation to calculate mg/ml and then were corrected for the dilution factor for the final mg/mL value. Only results from OD values within the range of the standard curve are acceptable. Values outside of the standard curve range are ignored. BCA AEH00350 Berechnung.xlsx
6. Sample Calculation and Preparation • thaw lysates of AEH00350 on ice • calculate sample volume for Western Blot loading 10 μg total protein/13 μL per slot: • dilute samples with lysis buffer and 10× reducing agent & 4×LDS buffer to 10 μg. • heat them at 70° C. for 10 min and 1000 rmp
7. […]

[2] = biological target: T1, MetAP-2; test: as above; type: cell-based; parameters: endogenous in cells; host or cells: HCT116; details: for Signal MetAp2/GAPDH normalized to untreated (DMSO): HTC116 cells, <1 means degradation

Signal MetAp2/GAPDH normalized to untreated (DMSO) ([1]; 0.1 μM)	reduction of MetAP-2 protein ([1]; 0.1 μM) [%]	Signal MetAp2/GAPDH normalized to untreated (DMSO) ([1]; 1 μM)	Signal MetAp2/GAPDH normalized to untreated (DMSO) ([1]; 10 μM)	reduction of MetAP-2 protein ([1]; 10 μM) [%]	Signal MetAp2/GAPDH normalized to untreated (DMSO) ([2]; 0.1 μM, 6 hrs)	Signal MetAp2/GAPDH normalized to untreated (DMSO) ([2]; 1 μM, 6 hrs)	Signal MetAp2/GAPDH normalized to untreated (DMSO) ([2]; 1 μM, 48 hrs)	reduction of MetAP-2 protein ([2]; 1 μM, after 6 h) [%]	reduction of MetAP-2 protein ([2]; 1 μM, after 24 h) [%]	Signal MetAp2/GAPDH normalized to untreated (DMSO) ([2]; 10 μM, 6 hrs)	Signal MetAp2/GAPDH normalized to untreated (DMSO) ([2]; 10 μM, 48 hrs)	reduction of MetAP-2 protein ([2]; 10 μM, after 6 h) [%]	reduction of MetAP-2 protein ([2]; 10 μM, after 48 h) [%]	Structure (SMILES)
0.7	30	0.6	0.3	70	1.3	0.9	1.2	15	40	0.9	0.3	10	70	O=C1CCC(N2C(=O)c3cccc(NCCOCCOCCOCCOCCOCCNC(=O)c4cc5cc(N6CCC(O)(C(=O)NCc7cc(F)cc(F)c7)C6=O)ccc5[nH]4)c3C2=O)C(=O)N1 (stereo not drawn) [Compound A1, 5-[3-[(3,5-difluorophenyl)methylcarbamoyl]-3-hydroxy-2-oxo-pyrrolidin-1-yl]-N-[2-[2-[2-[2-[2-[2-[[2-(2,6-dioxo-3-piperidyl)-1,3-dioxo-isoindolin-4-yl]amino]ethoxy]ethoxy]ethoxy]ethoxy]ethoxy]ethyl]-1H-indole-2-carboxamide]
1.2	–	1.0	0.6	40	1.3	1.6	1.5	–	–	1.1	0.8	–	20	O=C1CCC(N2C(=O)c3ccc(NCCOCCOCCOCCOCCNC(=O)c4cc5cc(N6CCC(O)(C(=O)NCc7cc(F)cc(F)c7)C6=O)ccc5[nH]4)cc3C2=O)C(=O)N1 (stereo not drawn) [Compound A2, 5-[3-[(3,5-difluorophenyl)methylcarbamoyl]-3-hydroxy-2-oxo-pyrrolidin-1-yl]-N-[2-[2-[2-[2-[2-[[2-(2,6-dioxo-3-piperidyl)-1,3-dioxo-isoindolin-5-yl]amino]-ethoxy]ethoxy]ethoxy]ethoxy]ethyl]-1H-indole-2-carboxamide]
